Results published in US8889677B2, “Substituted triazoles useful as mGlu5 receptor modulators” (Boehringer Ingellheim International GmbH, priority 2012, dated 2014).

Molecular target: T1, human recombinant mGluR5 (Homo sapiens, UniProt P41594)
T1 construct: expressed in transfected cells; host or cells: HEK 293 cell line cultured with tetracycline, hygromycin and geneticin; tetracycline removed 3-7 days before the assay
Assay: positive modulation of mGluR5, calcium based FLIPR assay in HEK 293 cells
Settings: HEK 293 cell line expressing human recombinant mGluR5; EC50 of the modulation of the glutamate response (glutamate approx. 5% basal stimulation); peak height of Ca release fluorescence signal
Procedure: The positive modulation of mGluR5 is measured in a HEK 293 cell line expressing human recombinant mGluR5 and is detected with calcium based FLIPR assay. The cells are cultured with DMEM supplemented with 10% FCS, 2 μg/mL tetracycline, 100 μg/mL hygromycin and 500 μg/mL gneticin. The cell culture media is exchanged for tetracycline-free cell culture media 3-7 days before the assay. One day before the assay the cell culture medium is exchanged to DMEM without glutamine and phenol red and supplemented with 10% FCS, 100 μg/mL hygromycin and 500 μg/mL geneticin. On the assay day, the medium of the subconfluent cultures is removed and the cells are detached by addition of 2.5 ml EDTA (0.02%) per 175 cm2 culture flask for 1 minute. The cells are resuspend in Ringer solution (140 mM NaCl, 5 mM KCl, 2.5 mM CaCl2, 1.5 mM MgCl2, 5 mM Glucose, 10 mM Hepes; adjusted to pH 7.4 with NaOH), pooled and Ringer solution added to adjust the volume to 50 mL. The cell suspension is centrifuged for […] at 1500 U/min (425 g). The supernatant is removed and the cells washed a second time with 50 ml fresh Ringer solution and centrifuged again as before. The supernatant is again removed and the pellet resuspended in Ringer solution to 1,000,000 cells/ml (1×10^6 cells/mL). The cells are plated onto BD BioCoat Poly-D-Lysine 384 well plates (20.000 cells/well; 20 μl/well). The lid covered plates are then incubated until use at 37° C./10% CO2. For dye loading, 20 μl of Calcium-4 assay kit solution (prepared according to the manufacturer's description in Ringer solution) are added to the cells and the plates are incubated for 80 min 37° C. and then 10 min at room temperature.
Controls, Compound Dilution and Assay Execution:
Each assay plate contained wells with “high” and “low” controls:
Low controls 1% DMSO/ringer solution+basal glutamate activation (defined as 100% CTL).
High controls 10 μM CDPPB+basal glutamate activation (defined as 200% CTL).
Test compounds are dissolved and diluted in DMSO to 100-fold the desired concentrations. In a second step, the compounds are diluted in Ringer solution such that the compounds are 4-fold more concentrated than the desired final assay concentration. The final DMSO concentration was 1%.
20 μl of each compound solution are then transferred to the assay plate and the Ca2+ kinetic is measured to determine any intrinsic compound activity. After 5 min incubation in the FLIPR device, the second stimulation with 20 μl of glutamate in Ringer solution (glutamate concentration adjusted to approximately 5% basal stimulation of the maximal possible glutamate effect) is added and the kinetic Ca2+ response of the wells was measured for the modulation effect.
The peak height of the Ca release related fluorescence signal (9-66) is used for the EC50. The EC50 of the modulation is calculated over a nonlinear regression with GraphPad Prism (Table 1).

T1 sequence (P41594 21-1212): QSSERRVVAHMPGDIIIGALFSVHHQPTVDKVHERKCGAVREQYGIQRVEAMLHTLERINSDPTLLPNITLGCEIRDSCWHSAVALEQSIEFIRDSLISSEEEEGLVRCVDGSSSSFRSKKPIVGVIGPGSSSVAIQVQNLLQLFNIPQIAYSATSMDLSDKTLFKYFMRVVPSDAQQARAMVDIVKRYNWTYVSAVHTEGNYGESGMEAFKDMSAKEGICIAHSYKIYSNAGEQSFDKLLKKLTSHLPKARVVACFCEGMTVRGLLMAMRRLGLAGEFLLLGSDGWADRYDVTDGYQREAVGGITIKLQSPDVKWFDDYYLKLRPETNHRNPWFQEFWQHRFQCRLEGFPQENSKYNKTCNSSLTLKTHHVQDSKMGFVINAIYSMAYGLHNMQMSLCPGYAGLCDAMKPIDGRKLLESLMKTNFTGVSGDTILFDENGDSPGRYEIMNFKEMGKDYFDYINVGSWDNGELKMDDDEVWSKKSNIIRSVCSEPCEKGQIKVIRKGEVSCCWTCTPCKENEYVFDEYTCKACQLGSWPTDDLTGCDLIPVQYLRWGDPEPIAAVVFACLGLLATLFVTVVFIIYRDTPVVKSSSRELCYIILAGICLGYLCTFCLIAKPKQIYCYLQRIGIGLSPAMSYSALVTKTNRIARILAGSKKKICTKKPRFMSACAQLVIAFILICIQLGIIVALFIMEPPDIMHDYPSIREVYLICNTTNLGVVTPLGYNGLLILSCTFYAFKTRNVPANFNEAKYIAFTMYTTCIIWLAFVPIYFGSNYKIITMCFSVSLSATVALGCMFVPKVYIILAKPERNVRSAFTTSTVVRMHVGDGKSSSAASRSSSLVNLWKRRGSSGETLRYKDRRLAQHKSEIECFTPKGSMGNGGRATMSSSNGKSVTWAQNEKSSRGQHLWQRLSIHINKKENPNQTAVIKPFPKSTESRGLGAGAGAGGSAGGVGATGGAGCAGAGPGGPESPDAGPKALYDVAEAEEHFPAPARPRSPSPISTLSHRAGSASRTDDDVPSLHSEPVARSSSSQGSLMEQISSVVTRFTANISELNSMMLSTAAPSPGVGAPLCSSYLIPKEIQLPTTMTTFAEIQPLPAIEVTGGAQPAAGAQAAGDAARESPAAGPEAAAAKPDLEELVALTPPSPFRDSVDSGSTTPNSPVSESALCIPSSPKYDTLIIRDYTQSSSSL

SMILES	EC50 [nM]
Cc1cc(-c2nc(-c3ccccc3)nn2CC(=O)N2CCN(c3ncccn3)CC2)ccc1Br [Example 07.01.07.]	66
COc1ccc(-c2nc(C3CCCCC3)n(CC(=O)N3CCN(c4ncccn4)CC3)n2)cc1 [Example 07.02.24.]	229
COc1cc(N2CCN(C(=O)Cn3nc(-c4ccc(C5CC5)cc4)nc3-c3ccccc3)CC2)ncn1 [Example 07.10.29.]	219
COc1cccc(-c2nc(C3CCCCC3)n(CC(=O)N3CCN(c4ncccn4)CC3)n2)c1 [Example 07.04.051.]	997
COc1ccnc(N2CCN(C(=O)Cn3nc(-c4ccc(F)c(C)c4)nc3C3CCCC(C)C3)CC2)c1 (stereo not drawn) [Example 07.04.148.]	918
COc1ccc(-c2nc(-c3ccc(F)cc3)n(CC(=O)N3CCN(c4ncccn4)CC3)n2)cc1 [Example 07.04.033.]	37
CCCc1nc(-c2ccc(F)c(C)c2)nn1CC(=O)N1CCN(c2ccccn2)CC1 [Example 07.04.083.]	497
Cc1cccc(-c2nc(-c3ccccc3)n(CC(=O)N3CCN(c4ncccn4)CC3)n2)c1 [Example 07.10.05.]	17
COC1CCN(c2cc(N3CCN(C(=O)Cn4nc(-c5ccc(F)cc5)nc4-c4ccc(F)cc4)CC3)ncn2)CC1 [Example 07.08.06.]	259
Cc1ccnc(N2CCN(C(=O)Cn3nc(-c4ccc(F)cc4)nc3C3CCCC3)CC2)c1 [Example 07.04.048.]	591
Cc1cc(-c2nc(C3CCCCC3)n(CC(=O)N3CCN(c4ccccn4)CC3)n2)ccc1F [Example 07.04.071.]	347
O=C(Cn1nc(-c2ccccc2)nc1-c1ccccc1)N1CCN(c2ccccn2)CC1 [Example 07.02.27.]	353
O=C(Cn1nc(-c2ccc(F)cc2)nc1C#Cc1ccccc1)N1CCN(c2ccccn2)CC1 [Example 07.11.01., 2-(3-(4-fluoro-phenyl)-5-phenylethynyl-(1,2,4)triazol-1-yl)-1-(4-pyridin-2-yl-piperazin-1-yl)-ethanone]	98
COc1ccc(-c2nc(-c3ccccc3)n(CC(=O)N3CCN(c4ccccn4)CC3)n2)cc1OC [Example 07.02.18.]	227
O=C(Cn1nc(-c2ccc(F)cc2)nc1-c1ccc(F)cc1)N1CCN(c2cc(OCC3CCCCO3)ncn2)CC1 (stereo not drawn) [Example 07.09.10.]	52
CCC(C)c1nc(-c2ccc(F)c(C)c2)nn1CC(=O)N1CCN(c2cc(OC)ccn2)CC1 (stereo not drawn) [Example 07.04.0100.]	670
O=C(Cn1nc(-c2ccc(F)cc2)nc1-c1ccc(F)cc1)N1CCN(c2cc(OCCOCCO)ncn2)CC1 [Example 07.09.04.]	64
O=C(Cn1nc(-c2ccc(F)cc2)nc1-c1ccc(F)cc1)N1CCN(c2cc(F)ccn2)CC1 [Example 07.01.04.]	82
CCc1cccc(-c2nc(-c3ccccc3)n(CC(=O)N3CCN(c4ncccn4)CC3)n2)c1 [Example 07.10.03.]	15
CCOc1cccc(-c2nc(-c3ccccc3)n(CC(=O)N3CCN(c4ncccn4)CC3)n2)c1 [Example 07.10.04.]	43
COc1ccc(-c2nc(-c3ccc(OC)cc3)n(CC(=O)N3CCN(c4ccc(C)cn4)CC3)n2)cc1 [Example 07.02.11.]	375
COCCN(C)c1cc(N2CCN(C(=O)Cn3nc(-c4ccc(F)cc4)nc3-c3ccc(F)cc3)CC2)ncn1 [Example 07.08.03.]	238
COc1ccc(-c2nc(-c3ccccc3)n(CC(=O)N3CCN(c4ncccn4)CC3)n2)cc1 [Example 07.10.02.]	37
COc1cc(N2CCN(C(=O)Cn3nc(-c4ccc(F)c(C)c4)nc3C3CCCC(C)C3)CC2)ncn1 (stereo not drawn) [Example 07.04.147.]	713
COc1cc(N2CCN(C(=O)Cn3nc(-c4ccc(F)cn4)nc3-c3ccc(F)cc3)CC2)ncn1 [Example 07.04.141.]	932
O=C(Cn1nc(-c2ccc(F)cc2)nc1-c1ccc(F)cc1)N1CCN(c2cc(OCCN3CCNC3=O)ncn2)CC1 [Example 07.09.18.]	103

SMILES	EC50 [nM]
Cc1cc(C)cc(-c2nc(-c3ccccc3)n(CC(=O)N3CCN(c4ncccn4)CC3)n2)c1 [Example 07.10.16.]	31
COc1ccc(-c2nc(-c3ccc(F)cc3)nn2CC(=O)N2CCN(c3cccnn3)CC2)cc1 [Example 07.04.043.]	334
COc1ccnc(N2CCN(C(=O)Cn3nc(-c4ccc(F)c(C)c4)nc3CCC(C)C)CC2)c1 [Example 07.04.120.]	153
COc1cc(N2CCN(C(=O)Cn3nc(-c4ccc(F)c(C)c4)nc3C(C)C)CC2)ncn1 [Example 07.04.086.]	1170
COc1cc(N2CCN(C(=O)Cn3nc(-c4ccc(F)c(Cl)c4)nc3-c3ccccc3)CC2)ncn1 [Example 07.10.37.]	101
COc1ccnc(N2CCN(C(=O)Cn3nc(-c4ccc(F)cc4)nc3-c3ccc(F)cc3)CC2)c1 [Example 07.03.01., 2-(3,5-Bis-(4-fluoro-phenyl)-(1,2,4)triazol-1-yl)-1-(4-(4-methoxy-pyridin-2-yl)-piperazin-1-yl)-ethanone]	88
O=C(Cn1nc(-c2ccc(F)cc2)nc1-c1ccc(F)cc1)N1CCN(c2cc(N3CCC(O)CC3)ncn2)CC1 [Example 07.08.02.]	284
CN(C)c1cc(N2CCN(C(=O)Cn3nc(-c4ccc(F)cc4)nc3-c3ccc(F)cc3)CC2)ccn1 [Example 07.03.23.]	1010
CC(C)Nc1cc(N2CCN(C(=O)Cn3nc(-c4ccc(F)cc4)nc3-c3ccc(F)cc3)CC2)ncn1 [Example 07.08.07.]	151
Cc1ccc(-c2nc(-c3ccccc3)nn2CC(=O)N2CCN(c3ncccn3)CC2)cc1 [Example 07.10.22.]	87
COc1cnc(N2CCN(C(=O)Cn3nc(-c4ccc(F)cc4)nc3-c3ccc(F)cc3)CC2)nc1 [Example 07.04.001., 2-(3,5-Bis-(4-fluoro-phenyl)-(1,2,4)triazol-1-yl)-1-(4-(5-methoxy-pyrimidin-2-yl)-piperazin-1-yl)-ethanone]	25
COc1ccc(-c2nc(-c3ccc(OC)cc3)n(CC(=O)N3CCN(c4ccc(C#N)cn4)CC3)n2)cc1 [Example 07.02.13.]	1290
Cc1cc(-c2nc(-c3ccccc3)n(CC(=O)N3CCN(c4ncc(Cl)cn4)CC3)n2)ccc1F [Example 07.04.058.]	25
COc1cc(N2CCN(C(=O)Cn3nc(-c4ccc(F)c(C(F)(F)F)c4)nc3-c3ccccc3)CC2)ncn1 [Example 07.10.31.]	270
O=C(Cn1nc(-c2ccc(F)cc2)nc1-c1ccc(F)cc1)N1CCN(c2cc(OCC3CCOC3)ncn2)CC1 (stereo not drawn) [Example 07.09.05.]	41
CC(C)CCN(C)c1cc(N2CCN(C(=O)Cn3nc(-c4ccc(F)cc4)nc3-c3ccc(F)cc3)CC2)ncn1 [Example 07.08.08.]	359
O=C(Cn1nc(-c2ccc(F)cc2)nc1-c1ccccc1)N1CCN(c2ccccn2)CC1 [Example 07.10.40.]	128
Cc1cc(-c2nc(-c3ccccc3)n(CC(=O)N3CCN(c4ncccn4)CC3)n2)ccc1F [Example 07.10.01., 2-(3-(4-fluoro-3-methyl-phenyl)-5-phenyl-(1,2,4)triazol-1-yl)-1-(4-pyrimidin-2-yl-piperazin-1-yl)-ethanone]	11
CCCc1nc(-c2ccc(F)c(C)c2)nn1CC(=O)N1CCN(c2ncncn2)CC1 [Example 07.04.084.]	1600
O=C(Cn1nc(-c2ccc(F)cc2)nc1-c1ccccc1)N1CCN(c2ncccn2)CC1 [Example 07.10.14.]	33
COc1ccc(-c2nc(-c3ccc(OC)cc3)n(CC(=O)N3CCN(c4ncccn4)CC3)n2)cc1 [Example 07.02.09.]	61
Cc1ccnc(N2CCN(C(=O)Cn3nc(-c4ccc(F)c(C)c4)nc3C3CCCC3)CC2)c1 [Example 07.04.114.]	495
O=C(Cn1nc(-c2ccc(F)cc2)nc1-c1ccc(F)cc1)N1CCN(c2cc(OCCCN3CCOCC3)ncn2)CC1 [Example 07.09.19.]	200
COc1ccc(-c2nc(-c3ccc(F)cc3)nn2CC(=O)N2CCN(c3ccccn3)CC2)cc1 [Example 07.10.41.]	182
O=C(Cn1nc(-c2ccc(F)cc2)nc1C1CCCC1)N1CCN(c2ncccn2)CC1 [Example 07.04.046.]	586
